Like-named read-outs stand apart in the source and are kept apart here. Values belong to the molecule of their own block, whether it stands above or below them.
Legend:
Assay in all cases: biochemical
Parameters in all cases: species or system human cell line lysate
[1] = target: LIM domain kinase 2 ; LIMK2 ; P53671 (Homo sapiens, UniProt P53671)
[2] = target: Aurora kinase C ; AURKC ; Q9UQB9 (Homo sapiens, UniProt Q9UQB9)
[3] = target: cAMP-dependent protein kinase catalytic subunit beta ; PRKACB ; P22694 (Homo sapiens, UniProt P22694)
[4] = target: Mitogen-activated protein kinase kinase kinase 2 ; MAP3K2 ; Q9Y2U5 (Homo sapiens, UniProt Q9Y2U5)
[5] = target: Isoform 3 of Casein kinase I isoform alpha ; CSNK1A1 ; P48729-3 (Homo sapiens, UniProt P48729)
[6] = target: Tyrosine-protein kinase CSK ; CSK ; P41240 (Homo sapiens, UniProt P41240)
[7] = target: Mitogen-activated protein kinase kinase kinase kinase 1 ; MAP4K1 ; Q92918 (Homo sapiens, UniProt Q92918)
[8] = target: Casein kinase I isoform gamma-1 ; CSNK1G1 ; Q9HCP0 (Homo sapiens, UniProt Q9HCP0)
[9] = target: Casein kinase I isoform delta ; CSNK1D ; P48730 (Homo sapiens, UniProt P48730)
[10] = target: Isoform 2 of Protein-tyrosine kinase 2-beta ; PTK2B ; Q14289-2 (Homo sapiens, UniProt Q14289)
[11] = target: Serine/threonine-protein kinase MRCK beta ; CDC42BPB ; Q9Y5S2 (Homo sapiens, UniProt Q9Y5S2)
[12] = target: SNF-related serine/threonine-protein kinase ; SNRK ; Q9NRH2 (Homo sapiens, UniProt Q9NRH2)
[13] = target: Isoform 5 of Aurora kinase B ; AURKB ; Q96GD4-5 (Homo sapiens, UniProt Q96GD4)
[14] = target: Serine/threonine-protein kinase MRCK alpha ; CDC42BPA ; Q5VT25 (Homo sapiens, UniProt Q5VT25)
[15] = target: T1, Dual specificity mitogen-activated protein kinase kinase 5 ; MAP2K5 ; Q13163 (Homo sapiens, UniProt Q13163)
T1 sequence (Q13163 1-448): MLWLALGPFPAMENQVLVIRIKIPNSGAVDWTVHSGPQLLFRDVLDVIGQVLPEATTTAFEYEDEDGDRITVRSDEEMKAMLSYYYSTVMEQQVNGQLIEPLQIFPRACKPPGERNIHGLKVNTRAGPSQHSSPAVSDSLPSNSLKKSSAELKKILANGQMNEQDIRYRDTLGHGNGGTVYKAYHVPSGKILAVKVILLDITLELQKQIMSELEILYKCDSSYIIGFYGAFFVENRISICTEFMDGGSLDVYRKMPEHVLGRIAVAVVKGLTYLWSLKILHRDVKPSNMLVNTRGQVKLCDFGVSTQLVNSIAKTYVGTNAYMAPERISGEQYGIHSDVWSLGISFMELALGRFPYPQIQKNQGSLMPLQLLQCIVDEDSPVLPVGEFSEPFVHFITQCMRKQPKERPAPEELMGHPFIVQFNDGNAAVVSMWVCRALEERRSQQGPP

[16] = target: Serine/threonine-protein kinase 4 ; STK4 ; Q13043 (Homo sapiens, UniProt Q13043)
[17] = target: Isoform Delta 12 of Calcium/calmodulin-dependent protein kinase type I ; CAMK2D ; Q13557-12 (Homo sapiens, UniProt Q13557)
[18] = target: Tyrosine-protein kinase JAK1 ; JAK1 ; P23458 (Homo sapiens, UniProt P23458)
[19] = target: Isoform CSBP1 of Mitogen-activated protein kinase 14 ; MAPK14 ; Q16539-2 (Homo sapiens, UniProt Q16539)
[20] = target: Mitogen-activated protein kinase 10 ; MAPK10 ; P53779 (Homo sapiens, UniProt P53779)
[21] = read-out: BAY-1143572 (10 µM) / %Intensity relative to DMSO
[22] = read-out: BAY-1251152 (10 µM) / %Intensity relative to DMSO

Sequence of Mitogen-activated protein kinase 10 ; MAPK10 ; P53779 (P53779 whole entry): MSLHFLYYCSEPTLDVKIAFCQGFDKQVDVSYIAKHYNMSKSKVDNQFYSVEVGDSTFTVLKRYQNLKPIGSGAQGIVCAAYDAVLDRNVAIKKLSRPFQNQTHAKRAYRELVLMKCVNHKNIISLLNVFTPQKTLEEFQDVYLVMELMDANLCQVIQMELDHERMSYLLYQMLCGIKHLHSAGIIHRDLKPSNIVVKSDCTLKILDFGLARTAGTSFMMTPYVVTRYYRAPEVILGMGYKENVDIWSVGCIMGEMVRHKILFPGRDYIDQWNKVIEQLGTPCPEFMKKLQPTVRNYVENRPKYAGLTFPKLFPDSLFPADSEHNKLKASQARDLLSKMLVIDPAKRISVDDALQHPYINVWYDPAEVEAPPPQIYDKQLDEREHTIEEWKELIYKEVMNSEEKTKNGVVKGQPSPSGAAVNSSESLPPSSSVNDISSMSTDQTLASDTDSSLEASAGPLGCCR
Sequence of Mitogen-activated protein kinase kinase kinase 2 ; MAP3K2 ; Q9Y2U5 (Q9Y2U5 whole entry, canonical isoform): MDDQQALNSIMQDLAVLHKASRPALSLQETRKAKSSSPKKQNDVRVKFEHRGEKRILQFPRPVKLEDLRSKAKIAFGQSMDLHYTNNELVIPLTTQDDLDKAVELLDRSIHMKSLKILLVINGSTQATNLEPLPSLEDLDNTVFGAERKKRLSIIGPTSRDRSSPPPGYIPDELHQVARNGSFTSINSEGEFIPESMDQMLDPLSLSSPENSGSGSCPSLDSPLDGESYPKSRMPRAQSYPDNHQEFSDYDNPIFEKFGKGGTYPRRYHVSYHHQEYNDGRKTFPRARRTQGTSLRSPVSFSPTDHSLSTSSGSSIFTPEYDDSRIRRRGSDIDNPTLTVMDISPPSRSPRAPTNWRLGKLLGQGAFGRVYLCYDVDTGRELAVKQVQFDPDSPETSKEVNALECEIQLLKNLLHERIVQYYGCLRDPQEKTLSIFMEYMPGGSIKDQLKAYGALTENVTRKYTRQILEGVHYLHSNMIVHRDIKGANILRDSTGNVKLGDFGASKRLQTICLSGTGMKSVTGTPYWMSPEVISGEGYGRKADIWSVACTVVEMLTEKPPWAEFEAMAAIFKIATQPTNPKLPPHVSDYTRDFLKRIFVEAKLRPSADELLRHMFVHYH
Sequence of Isoform Delta 12 of Calcium/calmodulin-dependent protein kinase type I ; CAMK2D ; Q13557-12 (Q13557 whole entry, canonical isoform, one chain of several): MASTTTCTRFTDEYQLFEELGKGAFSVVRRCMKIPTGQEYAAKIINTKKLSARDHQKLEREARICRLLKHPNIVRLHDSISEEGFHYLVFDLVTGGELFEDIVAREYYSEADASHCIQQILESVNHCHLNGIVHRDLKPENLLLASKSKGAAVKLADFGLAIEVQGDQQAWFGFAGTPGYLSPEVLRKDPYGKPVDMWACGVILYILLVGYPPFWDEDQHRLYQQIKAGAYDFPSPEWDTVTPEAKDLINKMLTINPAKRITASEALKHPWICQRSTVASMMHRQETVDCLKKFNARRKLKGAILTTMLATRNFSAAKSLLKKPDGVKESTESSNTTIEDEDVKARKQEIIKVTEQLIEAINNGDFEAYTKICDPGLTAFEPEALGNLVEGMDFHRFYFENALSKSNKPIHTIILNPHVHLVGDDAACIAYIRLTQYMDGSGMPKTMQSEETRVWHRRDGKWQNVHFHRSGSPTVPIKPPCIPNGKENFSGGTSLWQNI
Sequence of Tyrosine-protein kinase JAK1 ; JAK1 ; P23458 (P23458 whole entry, canonical isoform): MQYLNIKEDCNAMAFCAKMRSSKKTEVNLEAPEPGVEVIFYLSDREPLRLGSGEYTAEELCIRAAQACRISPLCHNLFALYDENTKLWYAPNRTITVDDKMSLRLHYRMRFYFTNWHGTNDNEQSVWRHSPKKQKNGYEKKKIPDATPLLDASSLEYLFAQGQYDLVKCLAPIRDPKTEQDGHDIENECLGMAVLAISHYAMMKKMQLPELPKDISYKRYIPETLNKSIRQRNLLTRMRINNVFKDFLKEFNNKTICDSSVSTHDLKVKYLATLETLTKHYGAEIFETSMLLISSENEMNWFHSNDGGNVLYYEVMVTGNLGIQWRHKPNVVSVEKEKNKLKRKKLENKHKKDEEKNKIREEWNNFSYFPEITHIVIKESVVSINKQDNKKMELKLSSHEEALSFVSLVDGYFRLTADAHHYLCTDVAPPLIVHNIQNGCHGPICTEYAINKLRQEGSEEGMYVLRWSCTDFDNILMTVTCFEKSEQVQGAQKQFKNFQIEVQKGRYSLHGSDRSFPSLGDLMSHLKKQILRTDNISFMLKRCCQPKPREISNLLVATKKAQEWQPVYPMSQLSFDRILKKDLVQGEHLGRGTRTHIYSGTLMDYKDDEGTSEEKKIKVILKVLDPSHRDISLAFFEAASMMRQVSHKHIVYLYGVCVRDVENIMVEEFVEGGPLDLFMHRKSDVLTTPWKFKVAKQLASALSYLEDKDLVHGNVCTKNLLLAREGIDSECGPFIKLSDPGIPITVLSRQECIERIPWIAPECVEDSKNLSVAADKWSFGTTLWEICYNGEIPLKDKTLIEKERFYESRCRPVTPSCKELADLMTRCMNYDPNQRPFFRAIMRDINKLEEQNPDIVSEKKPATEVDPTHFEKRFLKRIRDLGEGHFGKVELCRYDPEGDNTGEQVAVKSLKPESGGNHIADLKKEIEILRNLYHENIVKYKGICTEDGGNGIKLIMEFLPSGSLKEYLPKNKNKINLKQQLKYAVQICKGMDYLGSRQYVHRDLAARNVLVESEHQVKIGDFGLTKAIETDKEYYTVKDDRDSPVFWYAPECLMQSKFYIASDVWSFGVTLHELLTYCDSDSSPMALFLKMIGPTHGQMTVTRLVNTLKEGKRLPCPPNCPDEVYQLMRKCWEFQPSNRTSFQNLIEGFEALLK
Sequence of Casein kinase I isoform gamma-1 ; CSNK1G1 ; Q9HCP0 (Q9HCP0 whole entry, canonical isoform): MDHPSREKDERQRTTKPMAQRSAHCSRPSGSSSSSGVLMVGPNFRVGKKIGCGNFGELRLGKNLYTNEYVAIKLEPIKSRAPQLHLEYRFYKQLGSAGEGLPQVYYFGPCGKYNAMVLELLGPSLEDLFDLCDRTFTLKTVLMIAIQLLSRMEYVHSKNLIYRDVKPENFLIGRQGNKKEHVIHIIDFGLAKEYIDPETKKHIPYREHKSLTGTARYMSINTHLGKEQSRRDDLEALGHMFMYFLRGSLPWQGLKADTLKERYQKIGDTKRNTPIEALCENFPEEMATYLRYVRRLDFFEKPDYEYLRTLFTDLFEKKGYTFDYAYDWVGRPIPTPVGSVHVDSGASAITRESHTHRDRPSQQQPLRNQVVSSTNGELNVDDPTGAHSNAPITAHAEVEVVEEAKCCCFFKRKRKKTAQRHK
Sequence of Aurora kinase C ; AURKC ; Q9UQB9 (Q9UQB9 whole entry): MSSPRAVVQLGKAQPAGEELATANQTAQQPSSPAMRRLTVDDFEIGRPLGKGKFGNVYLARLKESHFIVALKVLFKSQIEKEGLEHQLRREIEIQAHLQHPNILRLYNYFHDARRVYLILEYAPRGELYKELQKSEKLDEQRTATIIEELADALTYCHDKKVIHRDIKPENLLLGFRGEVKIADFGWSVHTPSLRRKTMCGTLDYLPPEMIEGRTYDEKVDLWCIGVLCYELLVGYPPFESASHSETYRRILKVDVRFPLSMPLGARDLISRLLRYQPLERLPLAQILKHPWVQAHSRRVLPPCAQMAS
Sequence of SNF-related serine/threonine-protein kinase ; SNRK ; Q9NRH2 (Q9NRH2 whole entry, canonical isoform, one chain of several): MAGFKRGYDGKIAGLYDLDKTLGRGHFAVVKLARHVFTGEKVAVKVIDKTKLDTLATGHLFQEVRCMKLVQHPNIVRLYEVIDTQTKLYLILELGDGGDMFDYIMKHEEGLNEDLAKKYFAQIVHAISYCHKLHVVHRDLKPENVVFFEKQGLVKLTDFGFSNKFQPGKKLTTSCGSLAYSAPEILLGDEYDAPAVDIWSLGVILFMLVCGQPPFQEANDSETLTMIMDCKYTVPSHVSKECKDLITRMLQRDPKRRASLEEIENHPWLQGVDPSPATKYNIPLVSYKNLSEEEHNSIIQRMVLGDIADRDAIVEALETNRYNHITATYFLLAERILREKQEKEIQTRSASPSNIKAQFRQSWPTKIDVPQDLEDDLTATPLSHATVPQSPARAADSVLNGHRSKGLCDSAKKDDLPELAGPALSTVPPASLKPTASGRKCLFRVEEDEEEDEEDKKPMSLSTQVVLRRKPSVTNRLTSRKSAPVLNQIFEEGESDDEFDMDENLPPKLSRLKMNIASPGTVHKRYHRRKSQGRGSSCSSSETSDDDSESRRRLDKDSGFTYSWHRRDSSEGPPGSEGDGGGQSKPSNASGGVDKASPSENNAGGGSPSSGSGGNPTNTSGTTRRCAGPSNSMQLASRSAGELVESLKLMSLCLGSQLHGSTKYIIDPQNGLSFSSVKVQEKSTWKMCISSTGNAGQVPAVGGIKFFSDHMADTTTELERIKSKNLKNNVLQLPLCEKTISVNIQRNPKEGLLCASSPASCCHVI
Sequence of Casein kinase I isoform delta ; CSNK1D ; P48730 (P48730 whole entry, canonical isoform): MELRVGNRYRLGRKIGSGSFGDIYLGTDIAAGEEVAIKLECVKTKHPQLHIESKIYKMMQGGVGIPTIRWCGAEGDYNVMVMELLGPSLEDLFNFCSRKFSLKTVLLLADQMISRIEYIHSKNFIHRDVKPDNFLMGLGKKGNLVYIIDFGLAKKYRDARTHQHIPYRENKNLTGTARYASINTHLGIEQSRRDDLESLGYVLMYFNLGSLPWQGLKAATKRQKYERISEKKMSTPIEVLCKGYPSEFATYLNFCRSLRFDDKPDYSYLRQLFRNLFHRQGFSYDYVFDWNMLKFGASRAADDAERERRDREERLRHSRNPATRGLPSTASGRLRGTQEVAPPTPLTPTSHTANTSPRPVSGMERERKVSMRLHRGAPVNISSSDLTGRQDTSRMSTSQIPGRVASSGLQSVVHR
Sequence of Isoform 5 of Aurora kinase B ; AURKB ; Q96GD4-5 (Q96GD4 whole entry, canonical isoform): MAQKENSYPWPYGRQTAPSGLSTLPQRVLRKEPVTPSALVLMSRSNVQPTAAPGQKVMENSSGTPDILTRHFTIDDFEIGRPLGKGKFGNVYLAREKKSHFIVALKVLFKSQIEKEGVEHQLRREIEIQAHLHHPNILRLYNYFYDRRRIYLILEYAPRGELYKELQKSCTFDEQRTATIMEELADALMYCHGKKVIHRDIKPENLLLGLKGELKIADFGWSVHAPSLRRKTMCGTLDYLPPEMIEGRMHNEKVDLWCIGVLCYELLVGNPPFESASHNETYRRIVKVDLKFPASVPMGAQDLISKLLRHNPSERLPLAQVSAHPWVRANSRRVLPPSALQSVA

remaining activity at 10 µM [1, 21]: 78%
remaining activity at 10 µM [2, 21]: 105%
remaining activity at 10 µM [3, 21]: 111%
remaining activity at 10 µM [4, 21]: 106%
remaining activity at 10 µM [5, 21]: 115%
remaining activity at 10 µM [6, 21]: 112%
remaining activity at 10 µM [7, 21]: 101%
remaining activity at 10 µM [8, 21]: 175%
remaining activity at 10 µM [9, 21]: 121%
remaining activity at 10 µM [10, 21]: 100%
remaining activity at 10 µM [11, 21]: 102%
remaining activity at 10 µM [12, 21]: 191%
remaining activity at 10 µM [13, 21]: 101%
remaining activity at 10 µM [14, 21]: 97.1%
remaining activity at 10 µM [15, 21]: 102%
remaining activity at 10 µM [16, 21]: 108%
remaining activity at 10 µM [17, 21]: 124%
remaining activity at 10 µM [18, 21]: 104%
remaining activity at 10 µM [19, 21]: 133%
remaining activity at 10 µM [20, 21]: 119%
Compound: COc1cc(F)ccc1-c1ncnc(Nc2cccc(C[S@](C)(=N)=O)c2)n1 [BAY-1143572]

remaining activity at 10 µM [1, 22]: 109%
remaining activity at 10 µM [2, 22]: 41.7%
remaining activity at 10 µM [3, 22]: 105%
remaining activity at 10 µM [4, 22]: 103%
remaining activity at 10 µM [5, 22]: 111%
remaining activity at 10 µM [6, 22]: 106%
remaining activity at 10 µM [7, 22]: 71.6%
remaining activity at 10 µM [8, 22]: 163%
remaining activity at 10 µM [9, 22]: 117%
remaining activity at 10 µM [10, 22]: 98.1%
remaining activity at 10 µM [11, 22]: 101%
remaining activity at 10 µM [12, 22]: 147%
remaining activity at 10 µM [13, 22]: 65%
remaining activity at 10 µM [14, 22]: 107%
remaining activity at 10 µM [15, 22]: 101%
remaining activity at 10 µM [16, 22]: 94.2%
remaining activity at 10 µM [17, 22]: 106%
remaining activity at 10 µM [18, 22]: 110%
remaining activity at 10 µM [19, 22]: 120%
remaining activity at 10 µM [20, 22]: 108%
Compound: COc1cc(F)ccc1-c1cc(Nc2cc(CS(C)(=N)=O)ccn2)ncc1F (stereo not shown) [BAY-1251152]
